These results are taken from patent US12264148B2, “Ivosidenib forms and pharmaceutical compositions” (Servier Pharmaceuticals LLC, priority 2018, dated 2025).

Values after ≈ are worked out from the molar mass of the structure shown.

The test system of data set [1] is bacterial reverse mutation. The conditions noted are these: Registered substances; cited from earlier work.
Data set [2] has as its system bacterial reverse mutation. The data set can be described thus: In vitro bacterial reverse mutation assay (Ames).
A further data set concerns mutant IDH1 (mIDH1). The following applies: cited from earlier work.
A further data set relates to mutant IDH2 (mIDH2). The conditions noted are these: tool compound; Rohle et al. Science 2013; cited from earlier work.
Another data set deals with mIDH1-driven gliomas. The conditions noted are these: some model systems; Rohle et al. Science 2013; cited from earlier work.
Data set [3] in a line: Dissolution of 250 mg tablets spiked with crystalline form, Medium A (pH 6.8, 0.6% SDS). Type of data set: physicochemical. The conditions noted are these: 250 mg tablets vs target (nominal) formulation. The source says:
(§1) In order to assess the impact of crystalline polymorphic forms on dissolution profiles, variant tablets were manufactured with SDI spiked with drug substance of two different crystalline polymorphs: Form B, and Form L, which forms are as described above. As used herein, the term “spiked” or “spiking” is used consistently with usage in the field of pharmaceutical manufacturing, namely the introduction of a particular form to the crystallization solution to encourage nucleation and growth. These forms were selected because it was determined that if an SDI should crystallize, these two forms would be most likely to be present. However, it is noted that the SDI can be reliably made in completely amorphous form, with no detectable crystalline form present even under stressed conditions.
250 mg tables were manufactured by adding 50 mg (20% w/w) of crystalline Form L or Form B with the ivosidenib SDI (therefore, amorphous SDI was present at 80% w/w as a measure of the active ingredient.) […]
Similar dissolution studies were undertaken with Medium B (pH 6.8, 0.4% SDS). Similarity factors (f2) were calculated to assess the dissolution profiles, compared to a target formulation. […]

Data set [4] can be described thus: Dissolution of 250 mg tablets spiked with crystalline form, Medium B (pH 6.8, 0.4% SDS). Type of data set: physicochemical. The conditions noted are these: 250 mg tablets vs target (nominal) formulation.
From the text: as §1
250 mg tables were manufactured by adding 50 mg (20% w/w) of crystalline Form L or Form B with the ivosidenib SDI (therefore, amorphous SDI was present at 80% w/w as a measure of the active ingredient.)
Similar dissolution studies were undertaken with Medium B (pH 6.8, 0.4% SDS). Similarity factors (f2) were calculated to assess the dissolution profiles, compared to a target formulation. The similarity factors are included in Table 21.

The nature of data set [5]: Solubility of solid state forms in methanol. It counts as physicochemical.
The nature of data set [6]: Solubility in 5:95 v/v iPrOAc:heptane slurry. It counts as physicochemical. The following applies: remained a thick slurry.
Data set [7] is described as follows: Competitive slurries of Form L, Form M and Form N. It counts as physicochemical. The conditions noted are these: Form L, N in dichloromethane, heptane, tBME, acetone, ambient or 35/50 °C. As for the experimental part:
The temperature was increased to 70° C. to dissolve material. Anti-solvent addition (60 mL heptane) at 60 mL/h was carried out at 70° C. Once the anti-solvent addition was complete, the reaction was cooled to 60° C. and seeded with 0.63 g of Form B ivosidenib, which was stirred at 60° C. for 4 h then cooled to 15° C. over 10 h. An anti-solvent addition was started (308 mL heptane) at 75 mL/h, 15° C., 200 rpm. When the anti-solvent addition finished, the mixture was stirred at 15° C. for 2 h then isolated solid through filtration using a Buchner funnel (120 mm Ø) and washed with 246 mL of iPrOAc:heptane (1:1 v/v). In isopropyl acetate:heptane 5:95 v/v, Form N was retained, while in isopropyl acetate:heptane 20:80 v/v, a mixture of Form B and Form N was obtained.
The following procedure was followed for competitive slurry trials of the Form L, Form M, and Form N polymorphs: Approximately 50 or 75 mg of each different solid form was weighed out into 1.5 mL screw-cap vials. […]
Aliquots (100 μL or 25 μL) of appropriate solvent added as required to obtain a mobile slurry which was then stirred at either ambient (ca. 23° C.) or elevated (35 or 50° C.) temperature for ca. 21 or 68.5 h (see Table 4 for details). Solids were isolated solid by centrifugation and analyzed by XRPD. […]

For data set [8] the following is noted: potential impurities of ivosidenib drug substance; cited from earlier work.
Data set [9] in a line: Approximate solubility of ivosidenib freebase in 20 solvent systems at RT. Type of data set: physicochemical. The protocol: Approximate solubility of ivosidenib freebase was determined in 20 solvent systems at RT. In the experiment, ˜2 mg of ivosidenib was added into a 3-mL glass vial, followed by the addition of corresponding solvent. The solvent was added by 100 μL step wise until the solution was visually clear or a total volume of 2 mL was reached. This solubility information was used to select solvents for the polymorph screening.

The test system of a further data set is mutant IDH1 proteins. The conditions noted are these: U.S. Publication No. 2013/0190249 A1; cited from earlier work.

Regarding `Clc1ccccc1C(Cl)Cl` [1-chloro-2-(dichloromethyl)benzene], the “Ames result reported by ECHA” value in data set [1] is listed as “Ames-negative”.
For `ClCc1ccccc1Cl` [2-chlorobenzyl chloride], the “Ames result reported by ECHA” value in [1] was “Ames-negative”.
As to `Fc1cncc(/N=C/c2ccccc2Cl)c1` [(E)-1-(2-chlorophenyl)-N-(5-fluoropyridin-3-yl) methanimine], the Ames test result in [2] is reported as “negative”.
With `Cc1ccccc1C(C(=O)NC1CCCCC1)N(C(=O)Cn1ccnc1C)c1cccc(F)c1` (stereo not drawn) [AGI-5198], the “inhibition of mutant IDH1” value in the data set with mutant IDH1 (mIDH1) (tool compound, Rohle et al. Science 2013) is recorded as “inhibit mutant IDH1 (mIDH1)”. Also, the “inhibition of mutant IDH2” value in the data set with mutant IDH2 (mIDH2) is on record as “not mutant IDH2 (mIDH2)”. Also, the “growth of mIDH1-driven gliomas” value in the data set on mIDH1-driven gliomas is on record as “repress growth”.
With `N#Cc1ccnc(N2C(=O)CC[C@H]2C(=O)N(c2cncc(F)c2)[C@H](C(=O)NC2CC(F)(F)C2)c2ccccc2Cl)c1` [Form B], the “Similarity factor (f2) result for dissolution medium A” value in data set [3] is 26.0. Moreover, the “Similarity factor (f2) result for dissolution medium B” value in [4] was 43.1.
For `N#Cc1ccnc(N2C(=O)CC[C@H]2C(=O)N(c2cncc(F)c2)[C@H](C(=O)NC2CC(F)(F)C2)c2ccccc2Cl)c1` [Form L], the “Similarity factor (f2) result for dissolution medium A” value in data set [3] stood at 28.9. For the same molecule, the “Similarity factor (f2) result for dissolution medium B” value in data set [4] was determined as 48.5.
`N#Cc1ccnc(N2C(=O)CC[C@H]2C(=O)N(c2cncc(F)c2)[C@H](C(=O)NC2CC(F)(F)C2)c2ccccc2Cl)c1` [Form M]: the solubility in methanol in [5] was 109 mg/mL (≈ 187 mM). Moreover, the solubility in data set [5] (organic solvent or mixture, thermodynamic from solid, compared with ~70 mg/mL AG-120 in the SDI spray solution, read-out: solubility) was roughly 110 mg/mL (≈ 189 mM). In data set [6], the “solubility in 5:95 v/v iPrOAc:heptane” value is recorded as “poorly soluble”.
As for `N#Cc1ccnc(N2C(=O)CC[C@H]2C(=O)N(c2cncc(F)c2)[C@H](C(=O)NC2CC(F)(F)C2)c2ccccc2Cl)c1` [Form N], the solubility in data set [5] (compared with ~70 mg/mL AG-120 in the SDI spray solution) was roughly 110 mg/mL (≈ 189 mM); in data set [5] (organic solvent or mixture, thermodynamic from solid, read-out: solubility in methanol), 113 mg/mL (≈ 194 mM). Also, the “solubility in 5:95 v/v iPrOAc:heptane” value in data set [6] is recorded as “poorly soluble”. In [7], the “most stable anhydrous form in competitive slurries” value is “stable anhydrous form”.
On to `O=Cc1ccccc1` [benzaldehyde], for which, in [8], the “mutagenicity according to literature” value is recorded as “known mutagens”.
For the molecule `c1ccccc1` [benzene], in data set [8], the “mutagenicity according to literature” value is “known mutagens”.
Consider `ClCc1ccccc1` [benzyl chloride], for which, in data set [8], the “mutagenicity according to literature” value is listed as “known mutagens”.
As for `N#Cc1ccnc(N2C(=O)CC[C@H]2C(=O)N(c2cncc(F)c2)[C@H](C(=O)NC2CC(F)(F)C2)c2ccccc2Cl)c1` [ivosidenib, (S)—N—((S)-1-(2-Chlorophenyl)-2-(3,3-difluorocyclobutylamino)-2-oxoethyl)-1-(4-cyanopyridin-2-yl)-N-(5-fluoropyridin-3-yl)-5-oxopyrrolidine-2-carboxamide], the “Solubility (mg/mL)” value in data set [9] (Acetic acid, RT) is on record as 40.4~20.2 mg/mL; in data set [9] (DMSO, RT), 46.6~23.2 mg/mL; in data set [9] (IPA, RT), 38.8~19.4 mg/mL; in [9] (IPAC, RT), 40.2~20.1 mg/mL; in [9] (MIBK, RT) it was 18.6~12.0 mg/mL; in data set [9] (Toluene, RT), 18.6~12.4 mg/mL. For the same molecule, the solubility is greater than 41.6 mg/mL in data set [9] (organic solvent or mixture, thermodynamic from solid, 1,4-Dioxane, RT); greater than 41.4 mg/mL in data set [9] (organic solvent or mixture, thermodynamic from solid, 2-MeTHF, RT); greater than 36.8 mg/mL in data set [9] (organic solvent or mixture, thermodynamic from solid, ACN, RT); greater than 36.4 mg/mL in [9] (organic solvent or mixture, thermodynamic from solid, Acetone, RT); greater than 38.2 mg/mL in data set [9] (organic solvent or mixture, thermodynamic from solid, CHCl3, RT); greater than 24.5 mg/mL in data set [9] (organic solvent or mixture, thermodynamic from solid, DMA, RT). In addition, the solubility in [9] (organic solvent or mixture, thermodynamic from solid, EtOAc, RT) is greater than 41.8 mg/mL; in [9] (organic solvent or mixture, thermodynamic from solid, EtOH, RT) it was greater than 39.4 mg/mL; in data set [9] (organic solvent or mixture, thermodynamic from solid, Heptane, RT), less than 0.95 mg/mL; in data set [9] (organic solvent or mixture, thermodynamic from solid, MTBE, RT), greater than 37.8 mg/mL; in data set [9] (organic solvent or mixture, thermodynamic from solid, MeOH, RT), greater than 47.6 mg/mL; in data set [9] (organic solvent or mixture, thermodynamic from solid, NMP, RT), greater than 42 mg/mL. The solubility in data set [9] (organic solvent or mixture, thermodynamic from solid, THF, RT) is greater than 39 mg/mL; in [9] (water, thermodynamic from solid, H2O, RT), less than 1.26 mg/mL. Further, the “inhibition of mutant IDH1 proteins in biochemical assays” value in the data set on mutant IDH1 (mIDH1) (U.S. Publication No. 2013/0190249 A1) is listed as “inhibitor”. Further, in the data set on mutant IDH1 proteins, the “inhibition of mutant IDH1 proteins in cellular assays” value was “inhibitor”.
